Legend:
[1] = cited from earlier work
HEC-265 = test: Growth inhibition of cell lines treated with 2X-121; format: cell-based; conditions: cell line HEC-265, origin Endometrial; read-out: Measured growth inhibition IC50
Mino = test: as above; format: cell-based; conditions: Homo sapiens; cell line Mino, origin MCL; read-out: Measured growth inhibition IC50
SNG-II = test: as above; format: cell-based; conditions: cell line SNG-II, origin Endometrial; read-out: Measured growth inhibition IC50
AN3 CA = test: as above; format: cell-based; conditions: Homo sapiens; cell line AN3 CA, origin Endometrial; read-out: Measured growth inhibition IC50
KLE = test: as above; format: cell-based; conditions: Homo sapiens; cell line KLE, origin Endometrial; read-out: Measured growth inhibition IC50
THP-1 = test: as above; format: cell-based; conditions: Homo sapiens; cell line THP-1, origin AML; read-out: Measured growth inhibition IC50
HepG2 = test: as above; format: cell-based; conditions: Homo sapiens; cell line HepG2, origin HCC; read-out: Measured growth inhibition IC50
HEC-59 = test: as above; format: cell-based; conditions: cell line HEC-59, origin Endometrial; read-out: Measured growth inhibition IC50
ECC-1 = test: as above; format: cell-based; conditions: Homo sapiens; cell line ECC-1, origin Endometrial; read-out: Measured growth inhibition IC50
tumor = test: Phase I trial of 2X-121 (NCT01618136), clinical response; format: in vivo, human; parameters: key to RECIST: SD = stable disease; PD = progressive disease; PR = partial response
Protocol: A Phase I trial of 2X-121 was conducted in the UK (clinicaltrial.gov number NCT01618136). 2X-121 was administered as daily oral doses of 50-800 mg. Of 41 patients enrolled in the Phase I trial, 35 had response assessment. Of these, 2 had partial response (PR) (5% overall response rate (ORR)) and 13 had stable disease (SD). Biopsies and BRCA analysis were voluntary and available from 16, and 7 patients, respectively.
Of the 16 patients with biopsies, 13 passed our quality control (QC) in the lab and were assayed on the Affymetrix HG-U133Plus2 array.
A statistical analysis plan was completed before initiation of blinded prediction of 2X-121 sensitivity on the 13 samples. In this analysis, the difference of the mean expression of genes in Table 3 were subtracted from the mean expression of genes in Table 2 for each patient to determine a difference score. This score was compared to a reference population of 819 breast cancer patients to convert the difference score to a percentile score. The percentile score is shown in Table 4 as “DRP score” and used for FIGS. 3 and 4, and Tables 5 and 6.

HL-60 = test: Growth inhibition of cell lines treated with 2X-121; format: cell-based; conditions: Homo sapiens; cell line HL-60, origin Promyelocytic leukemia; read-out: Measured growth inhibition IC50
MFE-296 = test: as above; format: cell-based; conditions: Homo sapiens; cell line MFE-296, origin Endometrial; read-out: Measured growth inhibition IC50
HEC-6 = test: as above; format: cell-based; conditions: cell line HEC-6, origin Endometrial; read-out: Measured growth inhibition IC50
NCI-H524 = test: as above; format: cell-based; conditions: Homo sapiens; cell line NCI-H524, origin SCLC; read-out: Measured growth inhibition IC50
NCI-H1694 = test: as above; format: cell-based; conditions: Homo sapiens; cell line NCI-H1694, origin SCLC; read-out: Measured growth inhibition IC50
BT-20 = test: as above; format: cell-based; conditions: Homo sapiens; cell line BT-20, origin Breast; read-out: Measured growth inhibition IC50
RL = test: as above; format: cell-based; conditions: Homo sapiens; cell line RL, origin NHL B cell lymphoma; read-out: Measured growth inhibition IC50
[2] = Patient 1, tumor pancreas, 2X-121 dose 600 mg
[3] = Patient 2, tumor mesothelioma, 2X-121 dose 200 mg
[4] = Patient 3, tumor pancreas, 2X-121 dose 600 mg
[5] = Patient 4, tumor intestine, 2X-121 dose 600 mg
[6] = Patient 5, tumor ovary, 2X-121 dose 600 mg
[7] = Patient 6, tumor lung, 2X-121 dose 50 mg
[8] = Patient 7, tumor pancreas, 2X-121 dose 50 mg
[9] = Patient 8, tumor adrenal, 2X-121 dose 400 mg
[10] = Patient 9, tumor kidney, 2X-121 dose 400 mg
[11] = Patient 10, tumor ovary, 2X-121 dose 800 mg
[12] = Patient 11, tumor ovary, 2X-121 dose 800 mg
[13] = Patient 12, tumor pancreas, 2X-121 dose 600 mg
[14] = Patient 13, tumor gallbladder, 2X-121 dose 600 mg
[15] = predicted resistant group (below DRP cutoff 50, N=7)

O=c1[nH]nc2c3c(cccc13)N=C(CN1Cc3ccccc3C1)N2 [2X-121, 8-(isoindolin-2-ylmethyl)-2,9-dihydro-3H-pyridazino[3,4,5-de]quinazolin-3-one]
oral bioavailability [1]: orally bioavailable
IC50 (HEC-265): 2400 nM
IC50 (Mino): 3400 nM
IC50 (SNG-II): 5260 nM
IC50 (AN3 CA): 1490 nM
IC50 (KLE): 2590 nM
IC50 (THP-1): 5400 nM
IC50 (HepG2): 3800 nM
IC50 (HEC-59): 2440 nM
IC50 (ECC-1): 680 nM
response rate (tumor; BRCA mutated population, 1 of 6 responded): 16%
TimeOS (tumor; Patient 1, tumor pancreas, 600 mg, StatusOS Death): 208 days
TimePFS (tumor; Patient 1, tumor pancreas, 600 mg, StatusPFS censored): 42 days
Diameter (%), change from baseline (tumor; [2]): −10%
RECIST (tumor; [2]): SD
TimeOS (tumor; Patient 2, tumor mesothelioma, 200 mg, StatusOS Death): 167 days
TimePFS (tumor; Patient 2, tumor mesothelioma, 200 mg, StatusPFS Progression): 50 days
Diameter (%), change from baseline (tumor; [3]): 1%
RECIST (tumor; [3]): PD
TimeOS (tumor; Patient 3, tumor pancreas, 600 mg, StatusOS censored): 406 days
TimePFS (tumor; Patient 3, tumor pancreas, 600 mg, StatusPFS censored): 321 days
Diameter (%), change from baseline (tumor; [4]): −22%
RECIST (tumor; [4]): SD
TimeOS (tumor; Patient 4, tumor intestine, 600 mg, StatusOS Death): 120 days
TimePFS (tumor; Patient 4, tumor intestine, 600 mg, StatusPFS Progression): 59 days
Diameter (%), change from baseline (tumor; [5]): 23%
RECIST (tumor; [5]): PD
TimeOS (tumor; Patient 5, tumor ovary, 600 mg, StatusOS censored): 379 days
TimePFS (tumor; Patient 5, tumor ovary, 600 mg, StatusPFS Progression): 331 days
Diameter (%), change from baseline (tumor; [6]): −83%
RECIST (tumor; [6]): PR
TimeOS (tumor; Patient 6, tumor lung, 50 mg, StatusOS censored): 466 days
TimePFS (tumor; Patient 6, tumor lung, 50 mg, StatusPFS Progression): 155 days
Diameter (%), change from baseline (tumor; [7]): 5%
RECIST (tumor; [7]): SD
TimeOS (tumor; Patient 7, tumor pancreas, 50 mg, StatusOS Death): 335 days
TimePFS (tumor; Patient 7, tumor pancreas, 50 mg, StatusPFS censored): 262 days
Diameter (%), change from baseline (tumor; [8]): 3%
RECIST (tumor; [8]): SD
TimeOS (tumor; Patient 8, tumor adrenal, 400 mg, StatusOS Death): 190 days
TimePFS (tumor; Patient 8, tumor adrenal, 400 mg, StatusPFS Progression): 50 days
Diameter (%), change from baseline (tumor; [9]): 40%
RECIST (tumor; [9]): PD
TimeOS (tumor; Patient 9, tumor kidney, 400 mg, StatusOS censored): 865 days
TimePFS (tumor; Patient 9, tumor kidney, 400 mg, StatusPFS Progression): 276 days
Diameter (%), change from baseline (tumor; [10]): −2%
RECIST (tumor; [10]): SD
TimeOS (tumor; Patient 10, tumor ovary, 800 mg, StatusOS Death): 301 days
TimePFS (tumor; Patient 10, tumor ovary, 800 mg, StatusPFS Progression): 50 days
Diameter (%), change from baseline (tumor; [11]): 26%
RECIST (tumor; [11]): PD
TimeOS (tumor; Patient 11, tumor ovary, 800 mg, StatusOS censored): 715 days
TimePFS (tumor; Patient 11, tumor ovary, 800 mg, StatusPFS Progression): 315 days
Diameter (%), change from baseline (tumor; [12]): −46%
RECIST (tumor; [12]): PR
TimeOS (tumor; Patient 12, tumor pancreas, 600 mg, StatusOS Death): 257 days
TimePFS (tumor; Patient 12, tumor pancreas, 600 mg, StatusPFS Progression): 189 days
Diameter (%), change from baseline (tumor; [13]): −7%
RECIST (tumor; [13]): SD
TimeOS (tumor; Patient 13, tumor gallbladder, 600 mg, StatusOS Death): 121 days
TimePFS (tumor; Patient 13, tumor gallbladder, 600 mg, StatusPFS Progression): 41 days
Diameter (%), change from baseline (tumor; [14]): 3%
RECIST (tumor; [14]): PD
patients with partial response (PR) (tumor; Phase I, daily oral 50-800 mg, of 35 patients with response assessment): 2
overall response rate (ORR) (tumor; Phase I, daily oral doses of 50-800 mg, 41 enrolled, 35 with response assessment): 5%
hazard ratio, progression-free survival (PFS) (tumor; above DRP cutoff of 50 (N=6) vs below (N=7), P=0.2 one-sided): 0.59
hazard ratio, overall survival (OS) (tumor; above dose-adjusted DRP cutoff of 50 (N=6) vs below (N=7), P=0.04 one sided): 0.26
response rate (tumor; all 13 patients analyzed with DRP (cutoff 0, 100% of population), 2/13): 15%
response rate (tumor; patients above dose-adjusted DRP cutoff of 50, 2/6): 33%
median PFS (tumor; [15]): 155 days
median survival (tumor; [15]): 208 days
median PFS (tumor; predicted sensitive group (above DRP cutoff 50, N=6)): 296 days
IC50 (HL-60): 10300 nM
IC50 (MFE-296): 670 nM
IC50 (HEC-6): 1880 nM
IC50 (NCI-H524): 690 nM
IC50 (NCI-H1694): 2470 nM
IC50 (BT-20): 7900 nM
IC50 (RL): 2500 nM

Source: US12668845B2, “Methods for predicting drug responsiveness in cancer patients” (Allarity Therapeutics Europe ApS, priority 2018, dated 2026)
